# Read-outs that look alike come from different tables or passages of the source.
# Legend:
# [1] = test system: Reflex Sympathetic Dystrophy Syndrome (RSDS); test: Case history 22; type: in vivo, human; details: sibutramine 10 mg. b.i.d. Person
# From the text: 22. Reflex Sympathetic Dystrophy Syndrome (RSDS)
# A person injured their left ankle 14 months prior to their initial visit. The left lower leg then became red and then black, hot, swollen, and extremely painful. RSD was diagnosed and multiple treatments were unsuccessful. After nine months the skin gradually sloughed and the limb turned cold but remained painful, especially to touch. The patient also noted profuse swelling of the affected left leg, a tremor of the left hand, and many visual-spatial problems characteristic of right cerebral dysfunction. They were declared totally disabled. […] This enabled them to discontinue their other medication.
# [2] = test system: Reflex Sympathetic Dystrophy Syndrome (RSDS); Complex Regional Pain Syndrome (CRPS); test: Case history 27; type: in vivo, human
# [3] = test system: Institutionalization Syndrome; test: Case history 25; type: in vivo, human
# From the text: 25. The Symptoms Due to Institutionalization Syndrome, Also Known As Concentration Camp Syndrome or Survivors Syndrome.
# A person was diagnosed with Institutionalization Syndrome and had been in and out of hospitals for 25 years.
# [4] = test system: Intracerebral Porencephalic Cyst With Oscillopsia; test: Case history 14, Sibutramine Patient No. 111; type: in vivo, human
# From the text: 14. Intracerebral Porencephalic Cyst With Oscillopsia (Problem No. 5) Sibutramine Patient No. 111
# A person suffered a severe head injury in 1976 with a fractured skull, coma, and an intracerebral (porencephalic) cyst caused by the traumatic blockage of their cerebral spinal fluid in their brain. This cyst was repaired surgically with a brain ventricular—jugular vein shunt. This had permitted them to work continuously with concomitant treatment with carbamazepine, valproic acid, and dextroamphetamine until early 1998 when they began to suffer severe attacks of bizarrely altered vision, dizziness, ataxia, and confusion. The attacks progressed to several times per week, lasting 4-24 hours in duration. […] There is no known treatment for these attacks and they were therefore unable to drive or work safely. They were placed on total disability. They were started on 10 mg of sibutramine as needed for these oscillopsia attacks. […] After 2 months at the 5 mg tid dosage, the patient again noted a recurrence of oscillopsia on a 2-3 times weekly basis.
# [5] = test system: Severe Atypical Psychosis; test: Case history 1, Sibutramine Patient No. 97; type: in vivo, human; details: sibutramine 10 mg orally three times a day, added to carbamazepine, quetiapine, valproic acid; person
# [6] = test system: Torticollis, Lingual Dystonia and Dyskinesia; test: Case history 23; type: in vivo, human
# [7] = test system: Chronic Psychosis and Tardive Dyskinesia; test: Case history 28; type: in vivo, human
# Protocol: 28. Chronic Psychosis and Tardive Dyskinesia
# They were committed to a Psychiatric Hospital multiple times and was treated with multiple neuroleptic medication from which they have developed Tardive Dyskinesia. They were administered 15 mg sibutramine a day which had immediate effects, in less then one hour the improvement was noticed by them and others. […] They continue to take sibutramine along with 15 mg of Zyprexa daily.
# [8] = test system: Sick Building Syndrome (SBS); test: Case history 20; type: in vivo, human; details: sibutramine 5 mg. t.i.d. Person
# From the text: 20. Sick Building Syndrome (SBS)
# This person began to note an increasing fatigue, poor concentration, rash, and wheezing which they related to exposure to unknown foreigns in the large building in which they worked. They also noted that more than 40 other employees had similar symptoms. […] They were then forced to leave their job in this building with a gradual relief of all symptoms over the next several weeks.
# [9] = test system: Non-Tourette's tics, obsessive-compulsive rituals, and attention deficit hyperactive disorder (ADHD)
# [10] = test system: frontal lobe executive function, ADHD, and hyposexuality
# Gulf War Syndrome (GWS) = test: Case history 19; type: in vivo, human; details: 10 mg. b.i.d. of sibutramine; veteran
# [11] = test system: Sexual Function, ADD, and Rage Outbursts; test: Case history 3, Sibutramine Patient No. 100; type: in vivo, human; details: sibutramine 10 mg twice a day
# Sexual Function and ADD = test: Case history 4, Sibutramine Patient No. 109; type: in vivo, human
# [12] = test system: ADHD Refractory to Other Treatments; type: in vivo, human; details: sibutramine 10 mg every morning by mouth; person
# Protocol: 16. ADHD Refractory to Other Treatments (Problem No. 6) Sibutramine Patient No. 16
# The amphetamines made their nervous, jittery, and unable to sleep. […] They were started on sibutramine 10 mg every morning by mouth. […] After the first month, their dose was changed to 5 mg three times daily due to a five hour duration of effects.
# [13] = test system: Violence and Self-Laceration; test: Case history 2, Sibutramine Patient No. 3; type: in vivo, human
# Protocol: 2. Violence and Self-Laceration (Problem No. 1) Sibutramine Patient No. 3
# They were started on sibutramine 10 mg orally every morning for their violence, self-abuse and obesity.
# Retinitis Pigmentosa = test: Case history 13; type: in vivo, human
# From the text: person one presented with a 40 year history of gradual loss of vision due to RP. For the past 10 years they had been almost completely blind except for well-lit large shapes visible to their right eye. They have been prone to falls with head injury and had developed a focal seizure disorder which had been also associated with “visions”, stammering, and confusion. Multiple treatments had been tried unsuccessfully by other physicians, and they were then referred to me.
# One problem was that the effects faded after 4-6 hours and required multiple dosing. […] sleep was aided as well because of the relief from the frightening visual apparitions. The relief from stammering was also unexpected.
structure (smiles),measurement,setting,value
"CC(C)CC(N(C)C)C1(c2ccc(Cl)cc2)CCC1.Cl (stereo not drawn) [sibutramine, N,N-dimethyl-1-[1-(4-chlorophenyl)cyclobutyl]-3-methylbutylamine hydrochloride]",cognition and pain,[1],rapidly became cognitive and had pain relief
same,time to pain relief,"[2]; 15 mg capsule of sibutramine, child",≤ 45 min
same,toe and function,"[2]; 15 mg once a day, within 2 weeks","their toe became normal, and normal function was regained"
same,pain and symptoms after restart,[2]; back on 15 mg once a day,their pain level decreased significantly within one hour and their symptoms disappeared
same,foot pain,[2]; first 15 mg capsule,"dramatically better, completely relieved of pain"
same,symptoms off sibutramine,[2]; taken off for one day,all the previous symptoms reappeared
same,course since treatment began,[3]; four months,continued improvement of their symptoms
same,symptoms of Institutionalization Syndrome,[3]; sibutramine 15 mg once a day,relieved their symptoms within a few minutes
same,oscillopsia attacks,"[4]; 10 mg of sibutramine as needed, person",appeared to help
same,recurrence of oscillopsia,[4]; after 2 months at 5 mg tid,2-3 times weekly
same,oscillopsia attacks in the next four weeks,[4]; sibutramine 5 mg three times daily,only one such attack
same,oscillopsia attacks,[4]; sibutramine 10 mg tid,absence of attacks
same,"hallucinations, confusion, paranoia, and anxiety",[5],"marked decrease in hallucinations, confusion, paranoia, and anxiety"
same,symptoms with continued dosing,[6]; 15 mg sibutramine every six hours,prolonged and sustained relief of their symptoms
same,pain,[6]; sibutramine 15,their pain subsided
same,"tremors, mouth opening, arm movement",[6]; sibutramine 15,"their tremors considerably slowed, their mouth was no. longer pulling open as dramatically and their arm was not moving noticeably"
same,time to response,"[6]; sibutramine 15, person",≤ 45 min
same,emotion and paranoia,"[7]; 15 mg sibutramine a day, with Zyprexa",emotional for the first time and diminishing their paranoia greatly
same,time to noticed improvement,"[7]; 15 mg sibutramine a day, person",one hour
same,Tardive Dyskinesia,[7]; after the first week,his Tardive Dyskinesia improved
same,"cognitive, fatigue and allergic symptoms",[8],"rapid relief of the cognitive and fatigue symptoms, but no relief from the allergic symptomatology"
same,tics and OCD symptoms,"[9]; sibutramine 5 mg tid, child","stopped both the tics and the OCD symptoms, but only for a few hours"
same,effect of missing a single dose,[9]; sibutramine 10 mg tid,the vocal and motor tics return immediately
same,sleep and appetite,[9]; sibutramine 10 mg tid,Sleep and appetite were not affected
same,tics and OCD symptoms,[9]; sibutramine 10 mg tid,free of symptoms throughout the day
same,concentration at school,"[9]; sibutramine 10 mg tid, versus dextroamphetamine, methylphenidate, pemoline",better than with any of the analeptics
same,sexual drive after radical prostatectomy,[10]; sibutramine,this problem of sexual drive was repaired
same,efficacy after dose decrease,"[10]; sibutramine 5 mg bid, pemoline and methylphenidate discontinued",without a loss of efficacy
same,side effects,[10]; sibutramine 10 mg. bid,dry mouth and some insomnia
same,concentration and ability to plan,[10]; sibutramine 10 mg. bid p.o. Person,"immediate repair of concentration, and particularly their ability to plan and carry out these plans effectively"
same,"pain, cognitive problems, confusion",Gulf War Syndrome (GWS),"rapidly repaired their pain, cognitive problems, and confusion"
same,concentration and anger outbursts,[11],able to concentrate better and had fewer and less severe anger outbursts
same,sexual drive and interest,[11]; person,an increase in their sexual drive and interest
same,concentration and fatigue problems,Sexual Function and ADD; sibutramine 5 mg three times daily with continuing valproic acid,no longer had the concentration and fatigue problems
same,sexual interest and ability,"Sexual Function and ADD; sibutramine 5 mg three times daily, person",immediately noted a new-found interest and ability to engage in sex
same,effect on ADHD,[12],a calming and an alerting effect
same,"energy, seizures, violence and self-abuse",[13]; sibutramine 10 mg orally every,"gained new energy, had fewer seizures, and was no longer violent or self-abusive"
same,time to response,[13]; sibutramine 10 mg orally every morning,less than a week
same,wear-off of effects after administration,[13]; single morning dose 10 mg,5 to 6 h
same,time after which effects faded,Retinitis Pigmentosa; sibutramine 5 mgs.,4 to 6 h
same,visual apparitions (“visions”),Retinitis Pigmentosa; sibutramine 5 mgs. t.i.d.,lost the “visions” which had upset them so
same,"organization, alertness, stammering, vision",Retinitis Pigmentosa; sibutramine 5 mgs. t.i.d. Person one,"better organization and alertness, decreased stammering, but also better vision by visual testing"

# Source: patent US6696495B2, “Treatment of disorders secondary to organic impairments” (Snowden Pharmaceuticals, LLC, priority 1998, dated 2004)
